This is an account of results in US20160303137A1, “DUAL PI3K AND WNT PATHWAY INHIBITION AS A TREATMENT FOR CANCER” (Indiana University Research and Technology Corporation, priority 2015, published 2016).

For data set [1] the following is noted: known; cited from earlier work.
In data set [2] the test system is Phospho-AKT. As to the kind of experiment: pAKT western blot on TMD-231 tumors (PD study). In kind it is in vivo, NSG mice. To be noted: 7 days once-a-day; Buparlisib 30 mg/kg, WNT974 3 mg/kg. The procedure: (§1) For Western Blot analysis, target modulation was assessed using qPCR for Axin2 (a marker of WNT974), and western blot for Porcupine and Phospho-Akt […] (a marker of Buparlisib activity). qPCR was performed using Taqman assays (Life Technologies). For western blotting, protein was isolated using RIPA buffer and quantified with BCA assay (Thermo Fisher). Protein was run on Bis-Tris gels (Life Technologies) and transferred to PVDF. Primary pAKT-[…] antibody (Cell Signaling Technology, Beverly, Mass.), β-actin (Cell Signaling Technology), and PORCN (Abcam, Cambridge, England) were incubated overnight with subsequent 1 hour incubation with HRP-conjugate secondary antibody. Staining was performed using a chemiluminescent substrate (ThermoFisher). Imaging was performed using an LAS-4000 Luminescent Image Analyzer (Fujifilm, Tokyo, Japan).
In general terms: A western blot detects proteins with antibodies after separation by electrophoresis.

The nature of data set [3]: In vivo single-dose PK, plasma HPLC-MS/MS. On the set-up: species or system NSG mice. The note with it: for AUC(0-inf) / Cmax / Tmax / half-life / Vd/F: NOD-scid IL2Rgamma-null (NSG), mouse, po; for Vd/F: read-out: Vdss/F; for Cl/F: single dose po. The procedure:
For pharmacokinetic studies, NOD-scid IL2Rgamma-null (NSG) mice were obtained from the In Vivo Therapeutics (IVT) Core at the Indiana University School of Medicine and given a single dose of Buparlisib, WNT974, or the combination at pre-established concentrations of 30 mg/kg and 3 mg/kg respectively. This experiment employed 45 NSG mice (n=15 for each group). Plasma was drawn from 3 mice from each group at 0.5, 1, 2, 6, and 24 hours post dosage. Buparlisib and WNT974 were quantified in the plasma using high-performance liquid chromatography-mass spectrometry (HPLC-MS/MS). Pharmacokinetic (PK) parameters for Buparlisib and WNT974 including area under the curve (AUC), area under the moment curve (AUMC), and half-life (t½) were estimated using non-compartmental methods with Excel and WinNonlin v 2.0 (Certara, Princeton, N.J.). The maximum plasma concentration (Cmax) and time of Cmax (tmax) was calculated from the data. The systemic clearance (Cl/F, where F=bioavailability) of each drug was calculated from the dose and AUC0-∝The apparent volume of distribution (Vdss/F) was estimated from the Cl/F and mean residence time. The single-agent pharmacokinetic parameters were compared to the drug combination parameters to determine whether a drug-drug interaction exists.

In data set [4] the test system is AXIN2 RNA. Briefly: Axin2 RNA qPCR on TMD-231 tumors (PD study). The class given is in vivo, NSG mice. To be noted: 7 days once-a-day; Buparlisib 30 mg/kg, WNT974 3 mg/kg. The procedure: as §1
In general terms: Quantitative PCR measures a nucleic acid by following its amplification.

Data set [5] relates to TMD-231 lung metastases. Briefly: Lung metastases quantification (Ki67), TMD-231 model. In kind it is in vivo, NSG mice. To be noted: Ki67 positive pixels in lung sections; Buparlisib 30 mg/kg, WNT974 3 mg/kg. The procedure: For the pharmacodynamic studies, NSG mice were implanted with TMD-231 TNBC cells into the mammary fat pad of 24 NSG mice (6 mice per group: Vehicle, Buparlisib, WNT974, Buparlisib+WNT974). The TMD-231 cell line is a variant of the MDA-MB-231 cell line that metastasizes to the lung. Tumors were allowed to grow for 29 days to an average size of approximately 350 mm^3 prior to dosing. To validate compound-mediated modulation of the PI3K/mTOR and Wnt signaling pathways, mice were dosed once-a-day with vehicle, Buparlisib (30 mg/kg), WNT974 (3 mg/kg), or the combination for 7 days, with intermittent tumor measurements. […] To quantify lung metastases, lungs were extracted, fixed in 10% formalin, and processed in paraffin. Five-micrometer sections were H&E stained, deparaffinized, blocked, and stained using primary anti-human Ki67 antibody (DAKO, Carpinteria, Calif.). The Aperio whole slide digital imaging system was used for imaging (Leica, Wetzlar, Germany). Using the Aperio ScanScope CS, 20× images were taken at scan times ranging from 1.5 to 2.25 minutes. The total nuclear labeling index (Ki67) was generated using the Aperio ImageScope standard positive pixel algorithm. The Image Analysis software was used to calculate the percent of positive pixels (brown staining) in one large cross section from each lung.

Data set [6] concerns TNBC patient derived xenograft (PDX) (ID: BR0901). Briefly: TNBC PDX study, survival. In kind it is in vivo, NSG mice. To be noted: n=10 per group, once-a-day max 28 days; Buparlisib 30 mg/kg, WNT974 3 mg/kg. The procedure: NSG mice were trochar implanted in the right hind flank with a passage 1-4, 5 mm^3 TNBC patient derived xenograft (PDX) (ID: BR0901) at The Jackson Laboratory (The Jackson Laboratory, Bar Harbor, Maine). […] 40 TNBC PDX implanted mice were used (10 mice per group: Vehicle, Buparlisib (30 mg/kg), WNT974 (3 mg/kg), and Buparlisib+WNT974). Tumors were grown to an average of 70-150 mm^3 and mice averaged 22.5 grams body weight. Mice were dosed once-a-day for a maximum of 28 days. Tumor measurements were made two times a week. Mice whose tumors reached a size of 1500 mm^3 were euthanized per IACUC protocol.

The target of data set [7] is T1, Porcupine (Homo sapiens, UniProt Q9H237).
T1 sequence (Q9H237 1-461): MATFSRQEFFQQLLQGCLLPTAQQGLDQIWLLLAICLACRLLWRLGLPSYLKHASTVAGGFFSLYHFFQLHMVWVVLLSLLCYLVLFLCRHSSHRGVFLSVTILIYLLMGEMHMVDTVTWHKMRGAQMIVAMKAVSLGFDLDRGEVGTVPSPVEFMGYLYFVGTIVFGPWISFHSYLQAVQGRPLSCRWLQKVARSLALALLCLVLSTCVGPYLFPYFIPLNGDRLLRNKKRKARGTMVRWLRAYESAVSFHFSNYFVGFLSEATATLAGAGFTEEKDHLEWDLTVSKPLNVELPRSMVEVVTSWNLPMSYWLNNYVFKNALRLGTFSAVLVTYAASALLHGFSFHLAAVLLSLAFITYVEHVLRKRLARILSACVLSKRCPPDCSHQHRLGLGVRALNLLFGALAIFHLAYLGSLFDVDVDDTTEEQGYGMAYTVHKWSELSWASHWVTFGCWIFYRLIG
The note with it: recently published data; cited from earlier work.

Data set [8] is described as follows: Quantification of drug in resected tumors (PD study). The class given is in vivo, NSG mice. To be noted: tumors resected 1 hour and 7 hours after last dose, day 7; HPLC-MS/MS.
Data set [9] relates to TMD-231 TNBC cells. As to the kind of experiment: Pharmacodynamic study, TMD-231 xenograft tumor volume. In kind it is in vivo, NSG mice. To be noted: single agent, 7 days once-a-day; Buparlisib 30 mg/kg, WNT974 3 mg/kg. The procedure:
For the pharmacodynamic studies, NSG mice were implanted with TMD-231 TNBC cells into the mammary fat pad of 24 NSG mice (6 mice per group: Vehicle, Buparlisib, WNT974, Buparlisib+WNT974). The TMD-231 cell line is a variant of the MDA-MB-231 cell line that metastasizes to the lung. Tumors were allowed to grow for 29 days to an average size of approximately 350 mm^3 prior to dosing. To validate compound-mediated modulation of the PI3K/mTOR and Wnt signaling pathways, mice were dosed once-a-day with vehicle, Buparlisib (30 mg/kg), WNT974 (3 mg/kg), or the combination for 7 days, with intermittent tumor measurements.

Data set [10] relates to tumor growth. The note with it: recently published data; cited from earlier work.
[11] abbreviates: drug given alone, Buparlisib 30 mg/Kg, WNT974 3 mg/Kg.
Where [12] appears, read: measured drug given in combination with the other, Buparlisib 30 mg/Kg + WNT974 3 mg/Kg.

Where two headings read alike, the source gives them in different places.

In general, AUC(0-inf) refers to total exposure, with the tail of the curve extrapolated. The Cmax is the peak of the concentration-time curve. Usually Tmax stands for the time at which the peak concentration occurs. What is called half-life is the time in which the quantity being followed falls by half. As to `Cc1cc(-c2ncc(CC(=O)Nc3ccc(-c4cnccn4)cn3)cc2C)ccn1` [WNT974, 2-[5-methyl-6-(2-methylpyridin-4-yl)pyridin-3-yl]-N-(5-pyrazin-2-ylpyridin-2-yl)acetamide], in data set [1], the “toxicity / most common side effect in humans” value was “dysgeusia”. Moreover, the “Inhibition of Phospho-AKT in tumors” value in data set [2] is given as “not”. For the same compound, in [3] (setting [11]), the AUC(0-inf) amounted to 636 ng·h/mL, the Cmax was 165 ng/mL, the Tmax was 1 h and the half-life is 2.1 h. Further, in [3] (setting [11]), the Vd/F came out at 0.24 L and the Cl/F is 0.081 L/h. In data set [3] (setting [12]), the AUC(0-inf) stood at 621 ng·h/mL, the Cmax is 143 ng/mL, the Tmax amounted to 1 h and the half-life is 3 h. Besides, in data set [3] (setting [12]), the Vd/F was 0.4 L and the Cl/F turned out to be 0.087 L/h. Also, in data set [4], the “Axin2 RNA expression in tumors” value is on record as “decrease”. In [5], the “lung metastases compared with the control group” value is “small but non-significant decreases”. Besides, in [6], the “mice survived to the end of the study” value was determined as 0%. Further, the “inhibition of its target” value in data set [7] is listed as “potent inhibition”. The “drug concentrations in tumor tissue” value in [8] is given as “reaching the tumor”. For the same compound, in data set [9], the “tumor volume change (in words)” value was “grew slightly”. The “inhibition of tumor growth in vivo” value in data set [10] is on record as “significant inhibition”.
